Here are results for 28 compounds from patent US20250034170A1, “SMALL MOLECULE MODULATORS OF GLUCOCEREBROSIDASE ACTIVITY AND USES THEREOF” (Vanqua Bio, Inc., priority 2021, published 2025).

The assay addresses T1, GCase (Homo sapiens, UniProt P04062).
T1 construct: endogenous in cells; host or cells: HeLa cells
T1 sequence (P04062 40-536): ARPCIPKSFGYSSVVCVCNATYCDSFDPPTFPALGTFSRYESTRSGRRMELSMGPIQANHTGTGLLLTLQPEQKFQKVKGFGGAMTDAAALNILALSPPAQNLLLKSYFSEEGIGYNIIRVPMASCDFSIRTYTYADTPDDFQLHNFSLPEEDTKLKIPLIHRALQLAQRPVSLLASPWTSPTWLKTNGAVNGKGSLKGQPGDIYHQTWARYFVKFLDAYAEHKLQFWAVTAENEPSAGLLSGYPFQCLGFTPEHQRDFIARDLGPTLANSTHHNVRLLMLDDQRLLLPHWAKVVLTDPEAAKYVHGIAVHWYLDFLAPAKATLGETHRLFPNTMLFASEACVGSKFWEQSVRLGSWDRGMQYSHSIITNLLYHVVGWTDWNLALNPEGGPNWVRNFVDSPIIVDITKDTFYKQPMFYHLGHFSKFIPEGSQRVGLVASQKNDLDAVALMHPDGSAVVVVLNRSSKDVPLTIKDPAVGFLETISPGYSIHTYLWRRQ
The experiment in a line: activation of GCase in a live cell PFB assay in HELA cells. The assay is classed as cell-based. To be noted: activation of GCase, EC50 ranges. As to the method:
Exemplary compounds were evaluated for activation of GCase in a live cell PFB assay in HELA cells (essentially as described in Ysselstein et al., “LRRK2 kinase activity regulates lysosomal glucocerebrosidase in neurons derived from Parkinson's disease patients” Nature Communications (2019) 10:5570). […] EC50 ranges: A: <10 μM; B: >10-50 μM; C: >50-100 μM; D: >100 μM.
For orientation: EC50 means the concentration at which the effect is half-maximal. A lower EC50 goes with greater potency. `Cc1nn(CC(F)F)c2nc(N3CCC4(CCN(c5ccnc(C(F)(F)F)c5)C4=O)C3)ncc12` (stereo not shown) [Cmpd 515] returned a 50% effective concentration (EC50) of less than 10 µM. The result for `Cc1nc(N2CCC3(CCN(c4cnc5cnn(CC(F)F)c5n4)C3)C2=O)cc(C(F)(F)F)n1` (stereo not shown) [Cmpd 516] reads less than 10 µM; that for `O=C1N(c2ccnc(C(F)(F)F)c2)CCC12CCN(c1cnc3cnn(CC(F)F)c3n1)C2` (stereo not shown) [Cmpd 517], less than 10 µM; that for `O=C1N(c2cnc3cnn(CC(F)F)c3n2)CCC12CCN(c1ccnc(C(F)(F)F)c1)C2` (stereo not shown) [Cmpd 518], more than 100 µM. Consider `O=C1N(c2cnc3cnn(CC(F)F)c3n2)CCC12CCN(c1ccc(C(F)(F)F)nc1)C2` (stereo not shown) [Cmpd 519], for which the EC50 is 10 to 50 µM. In turn, `O=C1N(c2cnc3cnn(CC(F)F)c3n2)CCC12CCN(c1ccc(C(F)(F)F)cn1)C2` (stereo not shown) [Cmpd 520] displayed an EC50 of 10 to 50 µM. On to `Cc1nc(N2CCC3(CCN(c4cnc5cnn(CC(F)F)c5n4)C3)C2)cc(C(F)(F)F)n1` (stereo not shown) [Cmpd 521], for which the EC50 is less than 10 µM. To `Cc1nc(N2CC3(CCN(c4cnc5cnn(CC(F)F)c5n4)CC3)C2)cc(C(F)(F)F)n1` [Cmpd 522] belongs less than 10 µM; to `Cc1nc(N2CCC3(CCN(c4cnc5cnn(CC(F)F)c5n4)C3=O)C2)cc(C(F)(F)F)n1` (stereo not shown) [Cmpd 523], less than 10 µM; to `Cc1nc(N2CC3(CCN(c4cnc5cnn(CC(F)F)c5n4)C3=O)C2)cc(C(F)(F)F)n1` [Cmpd 524], less than 10 µM. Turning to `Cc1nc(N2CC3(CC(=O)N(c4cnc5cnn(CC(F)F)c5n4)C3)C2)cc(C(F)(F)F)n1` [Cmpd 525], the EC50 was less than 10 µM. `FC(F)Cn1ncc2ncc(N3CCC4(CC3)CN(c3cnc(C(F)(F)F)nc3)C4)nc21` [Cmpd 526]: the EC50 is less than 10 µM. `Cc1cc(N2CC3(CCN(c4cnc5cnn(CC(F)F)c5n4)CC3)C2)nc(C(F)(F)F)n1` [Cmpd 527] had an EC50 of less than 10 µM. `Cc1cc(N2CCC3(CCN(c4cnc5cnn(CC(F)F)c5n4)CC3)C2)nc(C(F)(F)F)n1` [Cmpd 528] gave an EC50 of less than 10 µM. To `Cc1cc(N2CC3(CCN(c4cnc5cnn(CC(F)F)c5n4)CC3)CC2=O)nc(C(F)(F)F)n1` [Cmpd 529] belongs less than 10 µM; to `Cc1nn(CC(F)F)c2nc(N3CCC4(CCN(c5cnc(C(F)(F)F)nc5)C4)C3)cnc12` (stereo not shown) [Cmpd 530], less than 10 µM; to `FC(F)(F)Cn1ncc2ncc(N3CCC4(CCN(c5cnc(C(F)(F)F)nc5)C4)C3)nc21` (stereo not shown) [Cmpd 531], less than 10 µM.

Compound `FC(F)(F)c1ncc(N2CCC3(CCN(c4cncc(-c5nncs5)n4)C3)C2)cn1` (stereo not shown) [Cmpd 532] showed an EC50 of 10 to 50 µM.

The compound `FC(F)(F)c1ncc(N2CCC3(CCN(c4cnc5cnn(C6COC6)c5n4)C3)C2)cn1` (stereo not shown) [Cmpd 533] came in with an EC50 of less than 10 µM. `Cc1nn(C2COC2)c2nc(N3CCC4(CCN(c5cnc(C(F)(F)F)nc5)C4)C3)cnc12` (stereo not shown) [Cmpd 534] showed an EC50 of less than 10 µM. As for `FC(F)(F)c1ncc(N2CCC3(CCN(c4ncc5cnn(C6COC6)c5n4)C3)C2)cn1` (stereo not shown) [Cmpd 535], the EC50 is less than 10 µM. Compound `Cc1nn(C2COC2)c2nc(N3CCC4(CCN(c5cnc(C(F)(F)F)nc5)C4)C3)ncc12` (stereo not shown) [Cmpd 536] had a half-maximal effective concentration (EC50) of less than 10 µM. The result for `Cc1nc(N2CCC3(CCN(c4cnc5c(C)nn(CC(F)F)c5n4)C3)C2)cc(C(F)(F)F)n1` (stereo not shown) [Cmpd 537] reads more than 100 µM. The compound `Cc1nc(N2CCC3(CCN(c4cnc5cnn(CC(F)(F)F)c5n4)C3)C2)cc(C(F)(F)F)n1` (stereo not shown) [Cmpd 538] showed an EC50 of 10 to 50 µM. In turn, `Cc1nc(N2CCC3(CCN(c4cncc(-c5nncs5)n4)C3)C2)cc(C(F)(F)F)n1` (stereo not shown) [Cmpd 539] showed an EC50 of 10 to 50 µM. The result for `Cc1nc(N2CCC3(CCN(c4ncc5cnn(CC(F)F)c5n4)C3)C2)cc(C(F)(F)F)n1` (stereo not shown) [Cmpd 540] reads 10 to 50 µM; that for `Cc1nc(N2CCC3(CCN(c4ncc5c(C)nn(CC(F)F)c5n4)C3)C2)cc(C(F)(F)F)n1` (stereo not shown) [Cmpd 541], less than 10 µM; that for `Cc1nc(N2CCC3(CCN(c4cnc5cnn(C6COC6)c5n4)C3)C2)cc(C(F)(F)F)n1` (stereo not shown) [Cmpd 542], less than 10 µM.
